Laboratory results from patent US20240189279A1, “IMMUNOMODULATORY COMPOSITIONS AND METHODS OF USE THEREOF” (THE TEXAS A&M UNIVERSITY SYSTEM, priority 2022, published 2024).

How the values were obtained:
[1] = tested on: liver bile acids; experiment: Liver bile acid analysis (targeted LC-MS) in WD mice; format: in vivo, mice (male B6 129SF1/J)
From the text: Animal experiments. Male B6 129SF1/J mice at 6 weeks of age were obtained from Jackson Laboratories (Bar Harbor, ME). Mice were acclimatized to the animal facility for one week. At the start of the experiment, mice were randomly divided into four groups (n=10 for each group). Three of the four groups were fed ad libitum a Western diet (WD) with 40% Kcal from fat and containing 0.15% cholesterol (D12079B, Research Diets) and a sugar water (SW) solution (23.1 g/L d-fructose+18.9 g/L d-glucose) as previously described (DIAMOND model (15)). After 8 weeks, the three groups of WD-fed mice were randomly selected for treatment with vehicle (WD group) or low (WD-50 group) or high dose (WD-100 group) of […]. The WD group was fed WD and drank sugar water. The WD-50 and WD-100 groups were fed WD and drank sugar water containing, respectively, 50 or 100 mg […] per kg body weight. The treatments were continued for another 8 weeks. Water bottles containing SW and […] or only SW were changed every other day. A fourth group of mice was fed a low-fat control diet (D12450B, Research Diets) and normal water for 16 weeks (CN group) (FIG. 9A). FIG. 9A presents the study design. […] The supernatant was transferred into a new sample tube and analyzed by LC-MS. […] The calculated bile acid concentrations were normalized to the level of spiked internal standard for each sample.

[2] = tested on: endotoxin-treated murine bone marrow derived macrophages; experiment: Cytokine expression in endotoxin-treated bone marrow derived macrophages; format: cell-based
[3] = tested on: free fatty acids; experiment: Quantification of free fatty acids in liver and serum of WD mice; format: in vivo, mice (male B6 129SF1/J)
From the text: Animal experiments. Male B6 129SF1/J mice at 6 weeks of age were obtained from Jackson Laboratories (Bar Harbor, ME). Mice were acclimatized to the animal facility for one week. At the start of the experiment, mice were randomly divided into four groups (n=10 for each group). Three of the four groups were fed ad libitum a Western diet (WD) with 40% Kcal from fat and containing 0.15% cholesterol (D12079B, Research Diets) and a sugar water (SW) solution (23.1 g/L d-fructose+18.9 g/L d-glucose) as previously described (DIAMOND model (15)). After 8 weeks, the three groups of WD-fed mice were randomly selected for treatment with vehicle (WD group) or low (WD-50 group) or high dose (WD-100 group) of […]. The WD group was fed WD and drank sugar water. The WD-50 and WD-100 groups were fed WD and drank sugar water containing, respectively, 50 or 100 mg […] per kg body weight. […] Quantification of free fatty acids. Serum and liver FFAs were analyzed using targeted LC-MS experiments performed on a quadrupole-time of flight instrument (TripleTOF 5600+, AB Sciex, Framingham, MA) as previously described with minor modifications (Tables 2 and 5). […] Free fatty acids (FFAs) in the liver and serum were quantified using product ion scan experiments (TripleTOF 5600+, AB Sciex, Framingham, MA). […] “Light” experiments with low collision energy were used for quantification. […]

## O=C([O-])Cc1c[nH]c2ccccc12.[Na+] [I3A, Indole-3-acetate sodium salt]
[1]; WD-50 group vs WD
  liver bile acid profile: did not show any significant changes in liver bile acid profile
[1]; WD-100 group vs WD (WD: reduced total, increased primary bile acids)
  liver total bile acids and primary bile acids: showed the opposite trend
[2]
  expression of IL-1, TNF-α, and MCP-1: dose-dependently downregulate the expression of IL-1, TNF-α, and MCP-1
[3]; I3A treatment vs WD
  liver total FFA concentration, significance of I3A effect: no significant effect
[3]; WD-100 group vs WD, p=0.11
  liver total FFA concentration, reduction: 36 % reduction
